The results in this text go back to patent US12404242B2, “Compositions and methods for making and using small molecules in the treatment of cancer” (Reglagene, Inc., priority 2021, dated 2025).

Converted amounts (≈) assume the structure as drawn. Where two headings read alike, the source gives them in different places.

For one data set, the system named is RWPE1 cells. The experiment in a line: Cell viability (AlamarBlue), RWPE1 normal prostate cells. The data set is classed as cell-based, human. More on the design: key to EC50 (μM) in RWPE1 cells: Inactive: less than 50% inhibition at the highest concentration tested at 50 μM. Particulars: normal prostate cell line; for EC50 (μM) in RWPE1 cells: 72 hours of treatment. As for the experimental part: (§1) In another exemplary method, half maximal effective concentration (EC50) was determined for some compounds and their isomers as disclosed herein in a variety of human cancer cell lines. In brief, cells from two prostate cancer cell lines (LNCaP, 22RV1), one glioblastoma cell line (U87), one breast cancer cell line (MCF7), a glioma cell line (LN18), a normal prostate cell line (RWPE1), and a glioblastoma cell line (T98G) were plated in a multi-well plate. After 24 hours, one of the compounds herein was added to the well at increasing concentrations. After 72 hours of treatment, cell viability was assessed using AlamrBlue® (Invitrogen) and fluorescence was read using the CLARIOstar Plus Multilabel Plate Reader (BMG Labtech). Samples were normalized to no treatment controls. EC50 values were determined using GraphPad Prism.
In general terms: The colour change of resazurin is a common sign of viable cells or microbes.

The next data set has as its system U87 cells. Briefly: Cell viability (AlamarBlue), U87 glioblastoma cells. The data set is classed as cell-based, human. On the set-up: key to EC50 (μM) in U87 cells: Inactive: less than 50% inhibition at the highest concentration tested at 50 μM. The following applies: 72 hours of treatment. The gist of the method:
(§2)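 EC50 from AlamarBlue fluorescence after 72 h compound exposure at rising concentrations; readings normalized to no-treatment wells. Compound added 24 h post-plating.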

The subject of another data set is 22RV1 cells. Briefly: Cell viability (AlamarBlue), 22RV1 prostate cancer cells. Particulars: 72 hours of treatment. The format is cell-based, human. The gist of the method:
as §2

A further data set relates to MCF7 cells. Briefly: Cell viability (AlamarBlue), MCF7 breast cancer cells. The following applies: Homo sapiens, 72 hours of treatment. The format is cell-based. How it is done: as §1
The test system of another data set is LNCaP cells. Briefly: Cell viability (AlamarBlue), LNCaP prostate cancer cells. The format is cell-based, human. The following applies: 72 hours of treatment. The gist of the method: as §2
Data set [1] is described as follows: Kinetic solubility in aqueous PBS buffer (HPLC-MS). The following applies: kinetic from dmso stock. The format is physicochemical. How it is done:
In another exemplary method, central nervous system multiparameter optimization (CNS MPO) score and kinetic solubility of selected compounds was determined. CNS MPO score for compounds and their isomers disclosed herein were calculated using an algorithm that uses a weighted scoring function assessing 6 key physicochemical properties (clogP, clogD, MW, TPSA, HBD, and pKa) for blood-brain-barrier (BBB penetration). CNS MPO score ranged from 0 and 6.0 with scores≥4.0 used as a cut-off to select compounds that can have a high probability of accumulating in the CNS. Kinetic solubility of a compound is the maximum solubility of the fastest precipitating species of the compound. Kinetic solubility was determined by preparing a concentrated stock solution for compounds and their isomers disclosed herein in an organic solvent (DMSO), after which the solution was mixed with an aqueous PBS buffer and then filtered. Filtrate was tested to quantify the kinetic solubilty using HPLC-MS calibration curve. The CNS MPO Score and kinetic solubility of the compounds tested are provided in Table 7 where “ND” means not determined.

A further data set deals with cancer cell. The experiment in a line: Cancer cell viability, cell line not stated (per-compound ranges in description). The data set is classed as cell-based. Particulars: 'In some embodiments', values worded 'about', read-out: EC50 in cancer cell viability (range stated in description). How it is done: as §1
Setting [2] is: DMSO stock mixed with aqueous PBS buffer, filtered, read-out: Kinetic Solubility.
Where [3] appears, read: 'In some embodiments', values worded 'about', read-out: kinetic solubility (range stated in description).

By EC50 is commonly meant the concentration at which the effect is half-maximal. As for `COC1CC(C(=O)NC(=O)Nc2ccc(Oc3ccc(F)cn3)c(C)c2)C1` (single isomer, unassigned) [Compound 15A, N-((4-((5-fluoropyridin-2-yl)oxy)-3-methylphenyl)carbamoyl)-3-methoxycyclobutanecarboxamide], the “EC50 (μM) in RWPE1 cells” value in the data set on RWPE1 cells was “Inactive”. In addition, the EC50 was 5.5 µM with U87 cells, 4.1 µM in the data set with 22RV1 cells, 11.5 µM in the data set with MCF7 cells and 1.6 µM with LNCaP cells.

On to `COC1CC(C(=O)NC(=O)Nc2ccc(Oc3ccc(C#N)cn3)c(C)c2)C1` (single isomer, unassigned) [Compound 16A, N-((4-((5-cyanopyridin-2-yl)oxy)-3-methylphenyl)carbamoyl)-3-methoxycyclobutane-1-carboxamide], for which the “EC50 (μM) in RWPE1 cells” value in the data set with RWPE1 cells is “Inactive”. The EC50 was 10 µM in the data set with U87 cells; 5.8 µM in the data set with 22RV1 cells; 12.7 µM in the data set on MCF7 cells; 2.9 µM in the data set on LNCaP cells (Homo sapiens, LNCaP, 72 h).

Consider `COC1CC(C(=O)NC(=O)Nc2ccc(Oc3ncc(Cl)cn3)c(C)c2)C1` (single isomer, unassigned) [Compound 20A, N-((4-((5-chloropyrimidin-2-yl)oxy)-3-methylphenyl)carbamoyl)-3-methoxycyclobutane-1-carboxamide], for which the “EC50 (μM) in RWPE1 cells” value in the data set with RWPE1 cells is “Inactive”. Besides, the EC50 with U87 cells was 2.6 µM; in the data set with 22RV1 cells, 1.5 µM; with MCF7 cells it was 5.8 µM; in the data set on LNCaP cells, 0.87 µM.

In general, solubility (kinetic) refers to the concentration staying in solution when a stock, usually in DMSO, is diluted into the medium. Take `COC1CCC(C(=O)NC(=O)Nc2ccc(Oc3ncc(Cl)cn3)c(C)c2)CC1` (stereo not drawn) [Compound 1, N-((4-((5-chloropyrimidin-2-yl)oxy)-3-methylphenyl)carbamoyl)-4-methoxycyclohexane-1-carboxamide]: the “EC50 (μM) in RWPE1 cells” value with RWPE1 cells is reported as “Inactive”. Besides, the EC50 in the data set on U87 cells (Homo sapiens, U-87 MG, 72 h) was 6 µM; with 22RV1 cells (Homo sapiens, 22Rv1, 72 h), 3.7 µM; with MCF7 cells, 3.4 µM; with LNCaP cells (Homo sapiens, LNCaP, 72 h) it was 2.4 µM. For the same molecule, the solubility (kinetic) in data set [1] (setting [2]) turned out to be 4.9 µM (≈ 2.05 µg/mL).

For the molecule `Cc1cc(NC(=O)NC(=O)C2COC2)ccc1Oc1ncc(Cl)cn1` [Compound 2, 1-{4-[(5-chloropyrimidin-2-yl)oxy]-3-methylphenyl}-3-(oxetane-3-carbonyl)urea], the EC50 in the data set on 22RV1 cells (Homo sapiens, 22Rv1, 72 h) was found to be 41 µM; in the data set on MCF7 cells, 20.9 µM; with LNCaP cells (Homo sapiens, LNCaP, 72 h) it was 19 µM.

Regarding `COC1CCC(C(=O)NC(=O)Nc2ccc(Oc3ccc(Cl)cn3)c(C)c2)CC1` (stereo not drawn) [Compound 7, N-((4-((5-chloropyridin-2-yl)oxy)-3-methylphenyl)carbamoyl)-4-methoxycyclohexane-1-carboxamide], the “EC50 (μM) in RWPE1 cells” value in the data set on RWPE1 cells is given as “Inactive”. The concentration giving a half-maximal response (EC50) in the data set on U87 cells (Homo sapiens, U-87 MG, 72 h) was 4.4 µM; in the data set with 22RV1 cells (Homo sapiens, 22Rv1, 72 h) it was 2.9 µM; in the data set on MCF7 cells, 2.4 µM; with LNCaP cells (Homo sapiens, LNCaP, 72 h), 2.8 µM. The solubility (kinetic) in data set [1] (setting [2]) worked out at 0.49 µM (≈ 0.205 µg/mL).

Consider `COC1CCC(C(=O)NC(=O)Nc2ccc(Oc3ncc(F)cn3)c(C)c2)CC1` (stereo not drawn) [Compound 8, 3-{4-[(5-fluoropyrimidin-2-yl)oxy]-3-methylphenyl}-1-(4-methoxycyclohexanecarbonyl)urea], for which, in the data set with RWPE1 cells, the “EC50 (μM) in RWPE1 cells” value is listed as “Inactive”. In addition, the concentration for a half-maximal effect (EC50) stood at 36 µM in the data set on U87 cells (Homo sapiens, U-87 MG, 72 h); 26 µM in the data set on 22RV1 cells (Homo sapiens, 22Rv1, 72 h); 24.3 µM in the data set on MCF7 cells; 27.5 µM with LNCaP cells (Homo sapiens, LNCaP, 72 h).

As to `COC1CCC(C(=O)NC(=O)Nc2ccc(Oc3ccc(F)cn3)c(C)c2)CC1` (stereo not drawn) [Compound 9, 3-{4-[(5-fluoropyridin-2-yl)oxy]-3-methylphenyl}-1-(4-methoxycyclohexanecarbonyl)urea], the “EC50 (μM) in RWPE1 cells” value in the data set with RWPE1 cells is listed as “Inactive”. Besides, the half-maximal effective concentration (EC50) stood at 4.9 µM in the data set with U87 cells (Homo sapiens, U-87 MG, 72 h); 5.1 µM with 22RV1 cells (Homo sapiens, 22Rv1, 72 h); 8.5 µM in the data set with MCF7 cells; 11.5 µM with LNCaP cells (Homo sapiens, LNCaP, 72 h).

In the case of `COC1CCC(C(=O)NC(=O)Nc2ccc(Oc3ncccn3)c(C)c2)CC1` (stereo not drawn) [Compound 10, 1-(4-methoxycyclohexanecarbonyl)-3-[3-methyl-4-(pyrimidin-2-yloxy)phenyl]urea], the “EC50 (μM) in RWPE1 cells” value in the data set with RWPE1 cells is “Inactive”. Besides, the EC50 amounted to 33.5 µM in the data set on U87 cells (Homo sapiens, U-87 MG, 72 h); 12.5 µM in the data set with 22RV1 cells (Homo sapiens, 22Rv1, 72 h); 12.9 µM in the data set with MCF7 cells; 13 µM with LNCaP cells (Homo sapiens, LNCaP, 72 h).

For the molecule `COC1CCC(C(=O)NC(=O)Nc2ccc(Oc3ccc(Cl)cn3)c(F)c2)CC1` (stereo not drawn) [Compound 12, N-((4-((5-chloropyridin-2-yl)oxy)-3-fluorophenyl)carbamoyl)-4-methoxycyclohexane-1-carboxamide], the EC50 was determined as 6.1 µM in the data set on RWPE1 cells (Homo sapiens, RWPE-1, 72 hours of treatment); 1.9 µM in the data set with U87 cells (Homo sapiens, U-87 MG, 72 h); 1.9 µM with 22RV1 cells (Homo sapiens, 22Rv1, 72 h); 1.9 µM with MCF7 cells; 3.1 µM with LNCaP cells (Homo sapiens, LNCaP, 72 h). Also, the kinetic solubility in data set [1] (setting [2]) is 0.28 µM (≈ 0.118 µg/mL).

As for `COC1CCC(C(=O)NC(=O)Nc2ccc(Oc3ncccn3)c(F)c2)CC1` (stereo not drawn) [Compound 13, 3-[3-fluoro-4-(pyrimidin-2-yloxy)phenyl]-1-(4-methoxycyclohexanecarbonyl)urea], the EC50 in the data set on 22RV1 cells (Homo sapiens, 22Rv1, 72 h) came to 14.1 µM; with MCF7 cells, 11.3 µM; in the data set on LNCaP cells (Homo sapiens, LNCaP, 72 h), 17.4 µM.

`COC1CC(C(=O)NC(=O)Nc2ccc(Oc3cnc(N4CCOCC4)nc3)c(C)c2)C1` (stereo not drawn) [Compound 44, 3-methoxy-N-((3-methyl-4-((2-morpholinopyrimidin-5-yl)oxy)phenyl)carbamoyl)cyclobutane-1-carboxamide]: the EC50 in the data set with U87 cells (Homo sapiens, U-87 MG, 72 h) came out at 22 µM; with 22RV1 cells (Homo sapiens, 22Rv1, 72 h), 17.8 µM; with MCF7 cells, 2.5 µM; in the data set with LNCaP cells (Homo sapiens, LNCaP, 72 h), 6.3 µM. For the same molecule, in data set [1] (setting [2]), the solubility (kinetic) was 0.95 µM (≈ 0.419 µg/mL).

`COC1CC(C(=O)NC(=O)Nc2ccc(Oc3ncc(C)s3)c(C)c2)C1` (stereo not drawn) [Compound 60, 3-methoxy-N-((3-methyl-4-((5-methylthiazol-2-yl)oxy)phenyl)carbamoyl)cyclobutane-1-carboxamide]: the EC50 with U87 cells (Homo sapiens, U-87 MG, 72 h) was 0.32 µM; in the data set with 22RV1 cells (Homo sapiens, 22Rv1, 72 h), 1.2 µM; in the data set with MCF7 cells, 0.6 µM; in the data set on LNCaP cells (Homo sapiens, LNCaP, 72 h), 0.88 µM.

For the molecule `Cc1cc(NC(=O)NC(=O)C2CCCCC2)ccc1Oc1ncc(Cl)cn1` [Compound 71, N-((4-((5-chloropyrimidin-2-yl)oxy)-3-methylphenyl)carbamoyl)cyclohexanecarboxamide], the “EC50 (μM) in RWPE1 cells” value in the data set on RWPE1 cells is reported as “Inactive”. For the same molecule, in the data set with U87 cells, the “EC50 (μM) in U87 cells” value is reported as “Inactive”. Moreover, the EC50 with 22RV1 cells (Homo sapiens, 22Rv1, 72 h) turned out to be 12.5 µM; in the data set on MCF7 cells, 9.4 µM; in the data set on LNCaP cells (Homo sapiens, LNCaP, 72 h), 10.4 µM.

Consider `COC1CC(C(=O)NC(=O)Nc2ccc(C)c(Oc3ncccn3)c2)C1` (stereo not drawn) [drawing 282, 3-methoxy-N-((4-methyl-3-(pyrimidin-2-yloxy)phenyl)carbamoyl)cyclobutane-1-carboxamide], for which, in the data set with cancer cell, the EC50 was 0.02 to 0.06 µM. The kinetic solubility in data set [1] (setting [3]) lay in the range of 13 to 17 µM (≈ 4.63 to 6.06 µg/mL).

As to `COC12CC(C(=O)NC(=O)Nc3ccc(C)c(Oc4ncccn4)c3)(C1)C2` [drawing 283, 3-methoxy-N-((4-methyl-3-(pyrimidin-2-yloxy)phenyl)carbamoyl)bicyclo[1.1.1]pentane-1-carboxamide], the 50% effective concentration (EC50) with cancer cell was 0.011 to 0.02 µM. The kinetic solubility in data set [1] (setting [3]) lay within 4 to 8 µM (≈ 1.47 to 2.95 µg/mL).
